Reference: patent US20250154165A1, “MULTIANTENNARY GLYCOLIPID MIMETICS” (CONSEJO SUPERIOR DE INVESTIGACIONES CIENTÍFICAS (CSIC), priority 2021, published 2025)

Experiments:
[1] = tested on: Splenocytes treated with αGalCer; experiment: Suppression of αGalCer-induced inflammation (splenocytes in vitro); format: cell-based, mouse; conditions: splenocytes treated concurrently with compound and αGalCer (FIG. 5)
Procedure: FIG. 5. […] Splenocytes were treated concurrently with the compounds of the invention and αGalCer to assess the suppressive function of compounds on αGalCer-induced inflammation, with several compounds showing prominent suppressive function.
(§1) The whole spleen was surgically removed from a mouse and mechanically dissociated into a single cell suspension of splenocytes, which were then cultured in the complete RPMI 1640 medium (cRPMI). Human peripheral blood mononuclear cells (PBMCs) from healthy volunteers were collected from whole blood through gradient-centrifugation with Histopaque-1077 (Sigma-Aldrich).
Splenocytes were treated concurrently with the compounds of the invention and αGalCer to assess their ability to suppress αGalCer-induced inflammation.

B6 mice = experiment: Adjuvancy function in vivo (serum IFNγ and IL-4 after injection)
Procedure: FIG. 11. […] The adjuvancy capability of the selected compounds 8, 12, 18, 27, and 29 in vivo was assessed by measuring the serum level of IFNγ and IL-4 induced after injecting them into B6 mice.
Besides assessing the ability of the new compounds to suppress inflammation, we also looked into their function to act as adjuvants, i.e. their ability to promote desirable immunological trends in the development of vaccines. We measured the in vivo adjuvancy capability of selected compounds 8, 12, 18, 27, and 29 in inducing IFNγ and IL-4 in B6 mice (FIG. 11).

[2] = tested on: OVA-induced AHR mouse model; experiment: Suppression of OVA-induced airway hyperreactivity (AHR) in vivo; conditions: OVA-induced AHR mouse model (FIG. 7)
Procedure: FIG. 7. […] The capability of selected compounds 8, 12, 18, and 27 in suppressing Th2 inflammation in vivo was assessed using the OAV-induced AHR mouse model.
(§2) For ovalbumin (OVA) challenge, mice were sensitized intraperitoneally (i.p.) with 50 μg of OVA with 2% alhydrogel adjuvant (InvivoGen). Mice were challenged three times with 50 μg of OVA on day 7 post-sensitization, either daily or every other day. Mice were sacrificed the day after the last OVA challenge. The scheme of the OT-1 adoptive transfer mouse model for examining the proliferation of CD8^+ T cells in adjuvanting OVA challenge is described in FIG. 13.
Mice were anesthetized with 100 mg per kg body weight pentobarbital (Sigma-Aldrich), tracheotomised and mechanically ventilated via the FinePointe RC system (Buxco Research Systems, Wilmington, NC). Lung function was assessed by measuring lung resistance and dynamic compliance in response to increasing doses of aerosolized methacholine (1.25-40 mg/mL, Sigma-Aldrich).
(§3) Using the Th2 OVA-induced AHR mouse model, we assessed the capability of selected compounds 8, 12, 18, and 27 in suppressing Th2 inflammation.

Splenocytes = experiment: Immune-stimulating function of compounds alone (splenocytes in vitro); format: cell-based, mouse; conditions: for Th1/Th2 bias: concluded from IFNγ and IL-4 secretion of splenocytes (FIG. 6); for IFNγ secretion / IL-4 secretion: splenocytes treated with compound alone (FIG. 6)
Procedure: FIG. 6. […] Splenocytes were treated with the compounds of the invention alone to assess the immune-stimulating function of the compounds. Compounds 12, 18, 22, 27, and 29 induced significant IFNγ secretion, and compound 8 induced significant IL-4 secretion.
as §1
Splenocytes were treated with the compounds of the invention alone to assess the immune-stimulating function of the compounds by measuring their ability to promote the secretions of IFN-γ and IL-4.

[3] = tested on: Splenocytes treated with LPS; experiment: Suppression of LPS-induced inflammation (splenocytes in vitro); format: cell-based, mouse; conditions: splenocytes treated concurrently with compound and LPS (FIG. 1)
Procedure: FIG. 1. […] Splenocytes were treated concurrently with the compounds of the invention and LPS to assess the suppressive function of compounds on LPS-induced inflammation, with several compounds showing prominent suppressive function.
as §1
Splenocytes were treated concurrently with the compounds of the invention and LPS to assess the suppressive function of compounds on LPS-induced inflammation.

[4] = tested on: OVA-induced AHR mouse model; experiment: Suppression of OVA-induced airway inflammation in vivo (IL-13 and IL-4 in BALF and lungs); conditions: OVA-induced AHR experiment; for IL-4 protein level in lungs / IL-13 protein level in lungs: lung protein (FIG. 9); for IL-4 level in BALF / IL-13 level in BALF: bronchoalveolar lavage fluid (FIG. 8)
Procedure: FIG. 8. […] The bronchoalveolar lavage fluid (BALF) from mice in the OAV-induced AHR experiment was examined forth IL-13 and IL-4 levels.
FIG. 9. […] The lungs from mice in the OAV-induced AHR experiment was examined for their IL-13 and IL-4 protein level.
FIG. 10. […] The lungs from mice in the OAV-induced AHR experiment was examined for their IL-13 and IL-4 mRNA levels.
as §2
Upon exposure of the trachea, the lungs were lavaged twice with 1 mL of PBS supplemented with 2% fetal calf serum (FCS). BALF was pooled and bronchoalveolar (BAL) cells were pelleted by centrifugation and fixed onto cytospin slides. The slides were stained with Diff-Quik solution (Polysciences Inc) and BAL differential cell count was performed.
as §3

[5] = tested on: glycosidases of human fibroblast lysates; experiment: Stability of the glycosidic linkage to glycosidases upon incubation with human fibroblast lysates; format: in vitro ADME; conditions: 4 h, 37° C., compound solution 200 μM, 0.1 M citrate buffer pH 4.5
Procedure: The stability of the glyosidic linkage in compounds 2, 4, 6, 8, 10, 12, 14, 16, 18, 20, 22, 23, 25, 27 and 29, selected as representative examples, upon incubation with human fibroblast lysates for 4 h was checked. For such purpose, cells were scraped into ice-cold H2O (10^6 cells mL^−1) and lysed by sonication. Insoluble materials were removed by centrifugation at 15,000 rpm for 5 min and protein concentrations were determined with Protein Assay Rapid Kit (WAKO, Tokyo, Japan). 10 μL of the lysates in 0.1% Triton X-100 in distilled water were incubated at 37° C. with 20 μL of the compound solution (200 μM) in 0.1 M citrate buffer, pH 4.5. In control experiments, the activity of several lysosomas glycosidases was confirmed using fluorescent substrates. The substrates were 4-methylumbelliferone (4-MU)-conjugated β-D-glucopyranoside (for GCase), α-D-glucopyranoside (for α-glucosidase), α-D-galactopyranoside (for α-Galase) and β-D-galactopyranoside (for β-galactosidase). The liberated 4-methylumbelliferone was measured in the black-well plate with a Perkin Elmer Luminescence Spectrometer (excitation wavelength: 340 nm; emission: 460 nm).

[6] = tested on: bone marrow-derived macrophages (BMDM) treated with LPS; experiment: Suppression of LPS-induced inflammation in bone marrow-derived macrophages (BMDM in vitro); format: cell-based; conditions: LPS-induced, BMDM (FIG. 2)
Source text: Since macrophage is the major responder to LPS-induced inflammation, we assessed the capability of selected compounds to suppress LPS-induced inflammation in bone marrow-derived macrophages (BMDM).

[7] = 2 hours after injection (FIG. 11)
[8] = 18 hours after injection (FIG. 11)

With `CCCCCCCCCCCCCCCCCCCCCCCCCC(=O)N[C@@H](CO[C@@H]1C(O)[C@@H](O)[C@H](O)C2COC(=O)N21)[C@H](O)[C@H](O)CCCCCCCCCCCCCC` (some centres unmarked) [Compound 2] the “suppressive function on αGalCer-induced inflammation” value [1] was “prominent inflammation-suppressing function”.

In the case of `CCCCCCCCCCCCCCCCCCCCCCCCCC(=O)N[C@@H](CO[C@@H]1C(O)[C@@H](O)[C@@H](O)C2COC(=O)N21)[C@H](O)[C@H](O)CCCCCCCCCCCCCC` (some centres unmarked) [Compound 6], the “suppressive function on αGalCer-induced inflammation” value [1] is reported as “prominent inflammation-suppressing function”.

With `CCCCCCCCCCCCCC[C@@H](O)[C@@H](O)[C@H](CO[C@@H]1C(O)[C@@H](O)[C@@H](O)C2COC(=O)N21)n1cc(CCCCCCCC)nn1` (some centres unmarked) [Compound 8] the “serum level of IFNγ induced” value (B6 mice; [7]) was “significant capability in inducing”, the “serum level of IL-4 induced” value (B6 mice; [7]) was “significant capability in inducing” and the “serum level of IFNγ induced” value (B6 mice; [8]) was “significant detectable level”. The “serum level of IL-4 induced” value (B6 mice; [8]) was “significant detectable level”, the “suppression of airway hyperreactivity (AHR)” value [2] was “can suppress AHR onset” and the Th1/Th2 bias (Splenocytes) was “Th2-biased”. For the same molecule, the IFNγ secretion (Splenocytes) was “not IFNγ”, the IL-4 secretion (Splenocytes) was “proficient at inducing IL-4 secretion” and the “suppressive function on LPS-induced inflammation” value [3] was “prominent inflammation-suppressing function”. The “IL-4 protein level in lungs” value [4] was “only showed significant suppression on IL-13” and the “IL-13 protein level in lungs” value [4] was “significant suppression”.

In the case of `CCCCCCCCCCCCCCC(O)C(O)C(COC1C(O)C(O)C(O)C2COC(=O)N21)n1cc(CCCCCCCCCCCC)nn1` (centres unmarked) [Compound 10], the “hydrolysis of the glycolipid mimetic (free polysubstituted 2-oxa-3-oxoindolizidine detected by gas chromatography)” value [5] is reported as “No traces of the free polysubstituted 2-oxa-3-oxoindolizidine” and the “suppressive function on LPS-induced inflammation” value [3] is reported as “prominent inflammation-suppressing function”.

In the case of `CCCCCCCCCCCCNC(=O)[C@H](CO[C@@H]1C(O)[C@@H](O)[C@H](O)C2COC(=O)N21)NC(=S)NCCCCCCCC` (some centres unmarked) [Compound 14], the “suppressive function on LPS-induced inflammation” value [3] is reported as “prominent inflammation-suppressing function”.

For `CCCCCCCCCCCCNC(=O)[C@H](CS[C@@H]1C(O)[C@@H](O)[C@H](O)C2COC(=O)N21)NC(=O)CCCCCCCCCCC` (some centres unmarked) [Compound 18], the “serum level of IFNγ induced” value (B6 mice; [7]) was “significant serum IFNγ level”, the “serum level of IL-4 induced” value (B6 mice; [7]) was “only showed significant serum IFNγ level” and the “serum level of IFNγ induced” value (B6 mice; [8]) was “significant serum IFNγ level”. The “serum level of IL-4 induced” value (B6 mice; [8]) was “only showed significant serum IFNγ level”, the “suppression of airway hyperreactivity (AHR)” value [2] was “can suppress AHR onset” and the Th1/Th2 bias (Splenocytes) was “Th1-biased”. For the same molecule, the IFNγ secretion (Splenocytes) was “effective in promoting the productions of IFNγ”, the IL-4 secretion (Splenocytes) was “not IL-4” and the “suppressive function on LPS-induced inflammation” value [3] was “prominent inflammation-suppressing function”. The “IL-4 level in BALF” value [4] was “significant suppression”, the “IL-13 level in BALF” value [4] was “only showed significant suppression on IL-4” and the “IL-4 protein level in lungs” value [4] was “only showed significant suppression on IL-13”. The “IL-13 protein level in lungs” value [4] was “significant suppression”.

`CCCCCCCCCCCCNC(=O)[C@H](CS[C@@H]1C(O)[C@@H](OCc2ccccc2)[C@H](O)C2COC(=O)N21)NC(=O)CCCCCCCCCCC` (some centres unmarked) [Compound 20] was tested, and the “suppressive function on LPS-induced inflammation” value [3] was “prominent inflammation-suppressing function”.

For `CCCCCCCCCCCCCC(=O)N[C@@H](CS[C@@H]1C(O)[C@@H](O)[C@H](O)C2COC(=O)N21)C(=O)NCCCCCCCCCCCC` (some centres unmarked) [Compound 22], the Th1/Th2 bias (Splenocytes) was “Th1-biased”, the IFNγ secretion (Splenocytes) was “effective in promoting the productions of IFNγ” and the IL-4 secretion (Splenocytes) was “not IL-4”.

With `CCCCCCCCCCCCNC(=O)[C@H](CO[C@@H]1C(O)[C@@H](O)[C@@H](O)C2COC(=O)N21)NC(=O)CCCCCCCCCCC` (some centres unmarked) [Compound 27] the “serum level of IFNγ induced” value (B6 mice; [7]) was “significant capability in inducing”, the “serum level of IL-4 induced” value (B6 mice; [7]) was “significant capability in inducing” and the “serum level of IFNγ induced” value (B6 mice; [8]) was “significant detectable level”. For the same molecule, the “serum level of IL-4 induced” value (B6 mice; [8]) was “significant detectable level”, the “suppression of IL-6” value [6] was “significant suppression” and the “suppression of TNFα” value [6] was “significant suppression”. The Th1/Th2 bias (Splenocytes) was “Th1-biased”, the IFNγ secretion (Splenocytes) was “effective in promoting the productions of IFNγ” and the IL-4 secretion (Splenocytes) was “not IL-4”. The “IL-4 level in BALF” value [4] was “only showed significant suppression on IL-13”, the “IL-13 level in BALF” value [4] was “significant suppression” and the “IL-4 protein level in lungs” value [4] was “only showed significant suppression on IL-13”. For the same molecule, the “IL-13 protein level in lungs” value [4] was “significant suppression”.

`CCCCCCCCCCCCNC(=O)[C@H](CS[C@@H]1C(O)[C@@H](O)[C@@H](O)C2COC(=O)N21)NC(=O)CCCCCCCCCCC` (some centres unmarked) [Compound 29] was tested, and the “serum level of IFNγ induced” value (B6 mice; [7]) was “significant capability in inducing”, the “serum level of IL-4 induced” value (B6 mice; [7]) was “significant capability in inducing” and the “serum level of IFNγ induced” value (B6 mice; [8]) was “significant detectable level”. For the same molecule, the “serum level of IL-4 induced” value (B6 mice; [8]) was “significant detectable level”, the Th1/Th2 bias (Splenocytes) was “Th1-biased” and the IFNγ secretion (Splenocytes) was “effective in promoting the productions of IFNγ”. For the same molecule, the IL-4 secretion (Splenocytes) was “not IL-4”.
